The subject of data set [1] is Myzus persicae (Green Peach Aphid). Briefly: Myzus persicae sunflower leaf disc spray test. It is filed as in vivo. As to conditions: foliar, 144 h, read-out: control (mortality). On the procedure: Sunflower leaf discs were placed on agar in a 24-well microtiter plate and sprayed with test solutions at an application rate of 200 ppm. After drying, the leaf discs were infested with an aphid population of mixed ages. After an incubation period of 6 DAT, samples were checked for mortality. The following compounds gave 100% control: 1.001, 1.003, 1.004, 1.005, 1.006, 1.007, 1.008, 1.016, 1.017, 1.019, 1.021, 1.023 and 1.024. The following compounds gave 80% control: 1.002 and 1.026. The following compounds gave 50% control: 1.010, 1.018, 1.025 and 1.027.

For data set [2] the test system is unchanged. Nature of the data set: Myzus persicae pea seedling root (systemic) test. As to conditions: 144 h, read-out: control (mortality). Type of data set: in vivo. An excerpt: Roots of pea seedlings, infested with an aphid population of mixed ages, were placed directly in the test solutions of 24 ppm. 6 days after introduction, samples were checked for mortality. The following compounds gave 100% control: 1.001, 1.003, 1.016, 1.021, 1.022 and 1.024. The following compounds gave 80% control: 1.005, 1.019, 1.020 and 1.023.

Data set [3] relates to Tetranychus urticae (Two-Spotted Spider Mite). Briefly: Tetranychus urticae bean leaf disc spray test. Type of data set: in vivo. To be noted: foliar, 192 h, read-out: control (egg mortality, larval mortality, adult mortality). From the text: Bean leaf discs on agar in 24-well microtiter plates wer sprayed with test solutions at an application rate of 200 ppm. After drying, the leaf discs are infested with mite populations of mixed ages. 8 days later, discs are checked for egg mortality, larval mortality, and adult mortality. The following compounds gave 100% control: 1.001, 1.003, 1.004, 1.005, 1.007, 1.016, 1.021, 1.022, 1.023, and 1.024. The following compounds gave 80% control: 1.019, 1.025 and 1.027.

In data set [4] the test system is Heliothis virescens (Tobacco Budworm). Nature of the data set: Heliothis virescens egg/larval test on artificial diet. Type of data set: in vivo. As to conditions: read-out: control (egg mortality, larval mortality, growth regulation). On the procedure:
Eggs (0-24 h old) were placed in 24-well microtiter plate on artificial diet and treated with test solutions at an application rate of 200 ppm by pipetting. After an incubation period of 4 days, samples were checked for egg mortality, larval mortality, and growth regulation. The following compounds gave 100% control: 1.016, 1.020 and 1.024. The following compounds gave 80% control: 1.001, 1.003 and 1.022. The following compounds gave 50% control: 1.004, 1.007, and 1.014.

Where [5] appears, read: 200 ppm by pipetting, eggs 0-24 h old on artificial diet, 4 days incubation.

The structures appear in SMILES notation. Where a name gives a salt, the structure may show the parent alone. Read-outs that look alike come from different tables or passages of the source.

Broadly, the mortality is the percentage killed. In general, melting point refers to the temperature of the solid-liquid transition.

Turning to `CCC(Oc1cccc(C(F)F)c1C)C1=NCCN1` (stereo not shown) [Compound 1.023], the mortality at 200 ppm in data set [1] and in data set [3] was 100% throughout. Also, the mortality at 24 ppm in data set [2] came to 80%.
For `CCCCC(Oc1cccc(CF)c1C)C1=NCCN1` (stereo not shown) [Compound 1.020], the mortality at 200 ppm in data set [4] (setting [5]) was 100%. Besides, in data set [2], the mortality at 24 ppm worked out at 80%.
In the case of `Cc1c(OC(C2=NCCN2)C(C)C)cccc1C(F)(F)F` (stereo not shown) [Compound 1.005], the mortality at 200 ppm in data set [1] and in data set [3] was 100% each time. Moreover, in data set [2], the mortality at 24 ppm is 80%.
In the case of `CCC(Oc1cccc(C(F)(F)F)c1C(F)F)C1=NCCN1` (stereo not shown) [Compound 1.002], the mortality at 200 ppm in data set [1] was 80%.
For the compound `CCCC(Oc1cccc(C(F)F)c1C)C1=NCCN1` (stereo not shown) [Compound 1.016], the mortality at 200 ppm in data set [4] (setting [5]), in data set [1] and in data set [3] was 100% in each case. Besides, the mortality at 24 ppm in data set [2] was determined as 100%.
Consider `CCCC(Oc1cccc(C(F)(F)F)c1SC)C1=NCCN1` (stereo not shown) (as salt: maleate), for which the melting point lay within 90 to 109 °C.
For `Cc1c(OC(C2=NCCN2)C(C)C)cccc1C(F)F` (stereo not shown) [Compound 1.021], the mortality at 200 ppm in data set [1] and in data set [3] was 100% throughout. Also, in data set [2], the mortality at 24 ppm was found to be 100%.
As for `CCCCC(Oc1cccc(C(F)F)c1C)C1=NCCN1` (stereo not shown) [Compound 1.019], the mortality at 200 ppm in data set [1] was found to be 100%; in data set [3], 80%. Also, in data set [2], the mortality at 24 ppm amounted to 80%.
As to `CCC(Oc1cccc(C(F)(F)F)c1C)C1=NCCN1` (stereo not shown) [Compound 1.001, 2-[1-(2-methyl-3-trifluoromethyl-phenoxy)-propyl]-4,5-dihydro-1H-imidazole], the figures for the mortality at 200 ppm in data set [4], in data set [1] and in data set [3] were 80%, 100% and 100%, respectively. In addition, the mortality at 24 ppm in data set [2] was 100%.
As for `CCC(Oc1cccc(CF)c1C)C1=NCCN1` (stereo not shown) [Compound 1.022], the mortality at 200 ppm in data set [4] was determined as 80%; in data set [3] it was 100%. In addition, the mortality at 24 ppm in data set [2] came to 100%.
For `CCCC(Oc1cccc(C(F)(F)F)c1C)C1=NCCN1` (stereo not shown) [Compound 1.003], the mortality at 200 ppm was 80% in data set [4] (setting [5]), 100% in data set [1] and 100% in data set [3]. In data set [2], the mortality at 24 ppm stood at 100%.
With `CCCC(Oc1cccc(CF)c1C)C1=NCCN1` (stereo not shown) [Compound 1.024], the mortality at 200 ppm in data set [4] (setting [5]), in data set [1] and in data set [3] was 100% in each case. Also, the mortality at 24 ppm in data set [2] came to 100%.
In the case of `CCCCC(Oc1cccc(C(F)(F)F)c1C)C1=NCCN1` (stereo not shown) [Compound 1.004], the mortality at 200 ppm was 50% in data set [4] (setting [5]), 100% in data set [1] and 100% in data set [3].
`CCC(Oc1cccc(C(F)(F)F)c1C(F)(F)F)C1=NCCN1` (stereo not shown): the melting point lay within 127 to 133 °C.
For `CCC(Oc1cccc(C(F)F)c1C1CC1)C1=NCCN1` (stereo not shown) [Compound 1.017], the mortality at 200 ppm in data set [1] amounted to 100%.
Consider `CCCC(Oc1cccc(C(F)(F)F)c1S(C)(=O)=O)C1=NCCN1` (stereo not shown), for which the melting point lay in the range of 112 to 120 °C.
Same read-out and setting: for `CCC(Oc1cccc(C(F)(F)F)c1CO)C1=NCCN1` (stereo not shown) (as salt: chloride) the value was 150 to 157 °C.
Still for that read-out and setting: as for `CCc1c(OC(CC)C2=NCCN2)cccc1C(F)(F)F` (stereo not shown) (as salt: oxalate), the figure is 185 to 187 °C.

Source of the values: patent publication US8497293B2, “Haloalkylsubstituted aryloxyalkylimidazolines for use as pesticides” (Syngenta Crop Protection LLC, priority 2007, dated 2013).
